Measured values from US20210338787A1 (priority 2020, published 2021).
Structures can show the parent of a compound that is named as a salt. Where two headings read alike, the source gives them in different places.

What was measured:
SARS-CoV-2 [1] = assay type: cell-based; details: Calu-3 cells
Caco-2 cells = details: tested concentrations (data not shown)
SARS-CoV-2 [2] = assay type: cell-based
HEK-293T cells = assay type: cell-based, human; details: tested concentrations (data not shown)
TMPRSS2 = biological target: T1, TMPRSS2 (Homo sapiens, UniProt O15393); assay: TMPRSS2 proteolytic activity in TMPRSS2-overexpressing HEK-293T cells, fluorogenic substrate BOC-QAR-AMC; assay type: cell-based
T1 construct: expressed in transfected cells; host or cells: HEK-293T
T1 sequence (O15393 whole entry): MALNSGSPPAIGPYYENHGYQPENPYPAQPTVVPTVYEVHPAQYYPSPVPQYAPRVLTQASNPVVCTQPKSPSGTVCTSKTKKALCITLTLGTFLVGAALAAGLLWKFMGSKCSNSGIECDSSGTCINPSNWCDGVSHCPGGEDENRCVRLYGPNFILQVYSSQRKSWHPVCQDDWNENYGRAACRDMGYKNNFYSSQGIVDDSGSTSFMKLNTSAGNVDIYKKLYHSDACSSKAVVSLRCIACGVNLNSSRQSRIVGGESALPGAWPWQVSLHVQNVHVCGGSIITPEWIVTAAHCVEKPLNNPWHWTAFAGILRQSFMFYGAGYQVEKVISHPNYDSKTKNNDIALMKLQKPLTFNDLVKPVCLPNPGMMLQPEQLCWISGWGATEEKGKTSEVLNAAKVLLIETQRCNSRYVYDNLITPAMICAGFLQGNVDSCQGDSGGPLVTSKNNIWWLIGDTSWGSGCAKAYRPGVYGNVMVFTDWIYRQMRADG
Procedure: B. Arbitrary fluorescence unit (AFU) measurements of control or TMPRSS-overexpressing cells incubated with BOC-QAR-AMC for 75 minutes at 37° C. are shown. Wells containing PBS and BOC-QAR-AMC were used as background fluorescence reads. C. Fluorescence of control or TMPRSS2-overexpressing cells was measured every 15 minutes for a total time of 180 minutes. D. The average proteolytic activity rate per minute of control or TMPRSS2-overexpressing cells. The fluorescent signal was measured by the UV filter (excitation 365 nm and emission 410 nm).
The results in A-C are presented as the means±SE from at least 3 independent experiments performed in duplicate and/or triplicate.
The following describes the development of an experimental framework for quantifying TMPRSS2 proteolytic activity. TMPRSS2 with a C-terminal V5 tag was overexpressed in a human cell line, HEK-293T, because of its high transfectability.
The effect of protease inhibitors on TMPRSS2 activity was tested.

| Molecule | SARS-CoV-2 plaque formation (SARS-CoV-2 [1]; 24 hours after infection) | SARS-CoV-2 plaque formation (SARS-CoV-2 [1]; 48 hours after infection) | toxicity in Caco-2 cells (Caco-2 cells) | decrease in viral load (genomic SARS-CoV-2 from intracellular RNA) compared with untreated control cells (SARS-CoV-2 [2]; Caco-2 cells, 10 μM, twenty hours after infection) | toxic effects in viability assays (HEK-293T cells) | IC50 (TMPRSS2; BOC-QAR-AMC, read-out: IC50 of inhibition of TMPRSS2 proteolytic activity) | decrease in viral load (genomic SARS-CoV-2 from intracellular RNA) compared with untreated control cells (SARS-CoV-2 [2]) | inhibition of TMPRSS2 proteolytic activity (TMPRSS2; all tested concentrations) |
| --- | --- | --- | --- | --- | --- | --- | --- | --- |
| CN(C)C(=O)COC(=O)Cc1ccc(OC(=O)c2ccc(NC(=N)N)cc2)cc1 [camostat mesylate, reference compound] | decreased SARS-CoV-2 plaque formation | effect of camostat lasted | nontoxic | −3.9 fold | – | – | – | – |
| alpha 1 antitrypsin [A1AT] | – | – | nontoxic | – | did not demonstrate toxic effects | 357 nM | −2.6 fold | – |
| secretory leukocyte protease inhibitor (protein, UniProt P03973 26-132, looked up) Antileukoproteinase: SGKSFKAGVCPPKKSAQCLRYKKPECQSDWQCPGKKRCCPDTCGIKCLDPVDTPNPTRRKPGKCPVTYGQCLMLNPPNFCEMDGQCKRDLKCCMGMCGKSCVSPVKA | – | – | – | – | – | – | – | none of the tested concentrations of SLPI inhibited TMPRSS2 proteolytic activity |
